Data from ChEMBL document CHEMBL1201862, “PubChem BioAssay data set” (2004).
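The compound was tested at five concentrations on cells cultured in 96-well plates, with a 48-hour exposure period. At the GI50, growth is halved.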 Calls of active or inactive are those of the source. Rule as the data show it: active = GI50 up to about 1.1 µM and inactive = higher.

How the values were obtained:
Test in all cases: growth of human tumour cells (NCI), 48 h
[1] = system: 786-0
[2] = system: ACHN
[3] = system: CAKI-1
[4] = system: HCT-15
[5] = system: HOP-62
[6] = system: HOP-92
[7] = system: K562
[8] = system: KM12
[9] = system: LOX IMVI
[10] = system: NCI-H23
[11] = system: OVCAR-5
[12] = system: SF-539
[13] = system: SK-MEL-28
[14] = system: SK-MEL-2
[15] = system: SK-MEL-5
[16] = system: TK-10
[17] = system: UO-31
[18] = system: MOLT-4
[19] = system: UACC-257

SMILES | GI50 [1] | GI50 [2] | GI50 [3] | GI50 [4] | GI50 [5] | GI50 [6] | GI50 [7] | GI50 [8] | GI50 [9] | GI50 [10] | GI50 [11] | GI50 [12] | GI50 [13] | GI50 [14] | GI50 [15] | GI50 [16] | GI50 [17] | GI50 [18] | GI50 [19]
O=C1Nc2ccccc2Nc2nc3cccccc-3c21 | > 100 µM (inactive) | > 100 µM (inactive) | > 100 µM (inactive) | > 100 µM | > 100 µM (inactive) | > 100 µM (inactive) | > 100 µM (inactive) | > 100 µM (inactive) | > 100 µM (inactive) | > 100 µM (inactive) | > 100 µM (inactive) | > 100 µM (inactive) | > 100 µM (inactive) | > 100 µM (inactive) | > 100 µM (inactive) | > 100 µM (inactive) | > 100 µM (inactive) |  | 
Fc1ccc(C2SCc3nc4ccccc4n32)cc1 (stereo unspecified) | 42.9 µM (inactive) | 34.8 µM (inactive) | 36.8 µM (inactive) | 34.8 µM | 35.8 µM (inactive) | 19.9 µM (inactive) | 31.3 µM (inactive) | 37.2 µM (inactive) | 49.2 µM (inactive) | 28.9 µM (inactive) | 21.4 µM (inactive) | > 100 µM (inactive) | 23.6 µM (inactive) | 39.6 µM (inactive) | 15.8 µM (inactive) | 24.4 µM (inactive) | 23 µM (inactive) | 32.1 µM (inactive) | 
CC(C)C12Cc3c(ccc4ccccc34)OC1(C)Oc1ccc3ccccc3c1C2 (stereo unspecified) | > 100 µM (inactive) | > 100 µM (inactive) | > 100 µM (inactive) |  |  | > 100 µM (inactive) | > 100 µM (inactive) | > 100 µM (inactive) | > 100 µM (inactive) | > 100 µM (inactive) | > 100 µM (inactive) | > 100 µM (inactive) |  | > 100 µM (inactive) | > 100 µM (inactive) | > 100 µM (inactive) | > 100 µM (inactive) | > 100 µM (inactive) | 
Cc1ccc(Nc2nc(C)c(C(/C=C/c3ccc(/C=C/C(=N/NC(=O)C[n+]4ccccc4)c4sc(Nc5ccc(C)cc5[N+](=O)[O-])nc4C)cc3)=N\NC(=O)C[n+]3ccccc3)s2)c([N+](=O)[O-])c1 | > 100 µM (inactive) | 82.8 µM (inactive) | 48.6 µM (inactive) | 88.1 µM | > 100 µM (inactive) |  | 81.3 µM (inactive) | > 100 µM (inactive) | 73.3 µM (inactive) | > 100 µM (inactive) | 50.8 µM (inactive) | 89.1 µM (inactive) | > 100 µM (inactive) | > 100 µM (inactive) |  | 51.3 µM (inactive) | 46.5 µM (inactive) | 76.7 µM (inactive) | > 100 µM (inactive)
CCOC(=O)/C(C#N)=C/c1[nH]c(C)c(C)c1C | > 100 µM (inactive) |  | > 100 µM (inactive) | > 100 µM | > 100 µM (inactive) | > 100 µM (inactive) | > 100 µM (inactive) | > 100 µM (inactive) | > 100 µM (inactive) | > 100 µM (inactive) | > 100 µM (inactive) | > 100 µM (inactive) |  | > 100 µM (inactive) | > 100 µM (inactive) | > 100 µM (inactive) | > 100 µM (inactive) | > 100 µM (inactive) | > 100 µM (inactive)
NCCNCc1c2ccccc2c(CNCCN)c2ccccc12 | 13.3 µM (inactive) | 34.8 µM (inactive) |  | 38 µM | 24.3 µM (inactive) | 22.2 µM (inactive) | 7.59 µM (inactive) | 15.3 µM (inactive) |  | 13.1 µM (inactive) | 27.4 µM (inactive) | 12.2 µM (inactive) | > 10 µM (inactive) | 14.5 µM (inactive) | 26.4 µM (inactive) | 69 µM (inactive) | 49.4 µM (inactive) | 3.78 µM (inactive) | 16.4 µM (inactive)
CC1=C(C(=O)Nc2ccc(C)cc2)C(c2cccc([N+](=O)[O-])c2)C(C(=O)Nc2ccc(C)cc2)=C(C)N1 | 26.2 µM (inactive) | 18.8 µM (inactive) | 27.9 µM (inactive) | 26.2 µM | 29.5 µM (inactive) |  | 16.9 µM (inactive) | 15.6 µM (inactive) | 16.2 µM (inactive) | 25.2 µM (inactive) | 53.2 µM (inactive) | 19 µM (inactive) | 28.8 µM (inactive) | 20.8 µM (inactive) | 20.2 µM (inactive) | 31.6 µM (inactive) | 22 µM (inactive) | 5.55 µM (inactive) | 21.2 µM (inactive)
Cc1cc(N(CCC#N)CCC#N)ccc1/N=N/c1ccccc1[N+](=O)[O-] | > 100 µM (inactive) | > 100 µM (inactive) | > 100 µM (inactive) | > 100 µM | 43.6 µM (inactive) |  | > 100 µM (inactive) | > 100 µM (inactive) | > 100 µM (inactive) | > 100 µM (inactive) | > 100 µM (inactive) | > 100 µM (inactive) | > 100 µM (inactive) | > 100 µM (inactive) | > 100 µM (inactive) | > 100 µM (inactive) | > 100 µM (inactive) | > 100 µM (inactive) | > 100 µM (inactive)
NNC(=O)N/N=C1\CN(c2ccc(Cl)cc2Cl)C(=O)C(=O)C1c1nc2ccccc2o1 (stereo unspecified) | > 100 µM (inactive) | > 100 µM (inactive) | > 100 µM (inactive) |  | > 100 µM (inactive) | > 100 µM (inactive) | > 100 µM (inactive) | > 100 µM (inactive) |  | 85.5 µM (inactive) | > 100 µM (inactive) | > 100 µM (inactive) | > 100 µM (inactive) | > 100 µM (inactive) | > 100 µM (inactive) |  | 92.5 µM (inactive) | > 100 µM (inactive) | > 100 µM (inactive)
Cc1cc(C)c(C(=O)O)c(N)c1O | > 100 µM (inactive) | > 100 µM (inactive) | > 100 µM (inactive) | > 100 µM | > 100 µM (inactive) |  | > 100 µM (inactive) | > 100 µM (inactive) | > 100 µM (inactive) | > 100 µM (inactive) | > 100 µM (inactive) |  | > 100 µM (inactive) | > 100 µM (inactive) | > 100 µM (inactive) | > 100 µM (inactive) | > 100 µM (inactive) | > 100 µM (inactive) | > 100 µM (inactive)
CC(C)(C)OC(=O)/C=C/C(=O)O/C=C/[N+](=O)[O-] | > 100 µM (inactive) | > 100 µM (inactive) | > 100 µM (inactive) | > 100 µM | > 100 µM (inactive) | > 100 µM (inactive) | 14.4 µM (inactive) | > 100 µM (inactive) | > 100 µM (inactive) | > 100 µM (inactive) | > 100 µM (inactive) | > 100 µM (inactive) |  |  | > 100 µM (inactive) | > 100 µM (inactive) | > 100 µM (inactive) |  | > 100 µM (inactive)
Cc1cnc2ccc(C)c([N+](=O)[O-])c2c1NCCCN(C)C | > 100 µM (inactive) | > 100 µM (inactive) | > 100 µM (inactive) | > 100 µM | > 100 µM (inactive) |  | > 100 µM (inactive) | > 100 µM (inactive) | > 100 µM (inactive) | > 100 µM (inactive) | > 100 µM (inactive) | > 100 µM (inactive) | > 100 µM (inactive) | > 100 µM (inactive) |  | > 100 µM (inactive) | 27.2 µM (inactive) | > 100 µM (inactive) | > 100 µM (inactive)
Oc1cc(-c2cccs2)nc2cc3c(cc12)OCO3 | 3.78 µM (inactive) | 7.31 µM (inactive) |  | 4.23 µM | 3.96 µM (inactive) | > 100 µM (inactive) | 2.42 µM (inactive) | 2.45 µM (inactive) | 4.92 µM (inactive) | 3.78 µM (inactive) | 7.98 µM (inactive) | 3.7 µM (inactive) | 9.33 µM (inactive) | 4.99 µM (inactive) | 1.75 µM (inactive) | 21.3 µM (inactive) | 4.69 µM (inactive) | 4.52 µM (inactive) | 3.72 µM (inactive)
CCCCCCCCCCCCCC(=O)OC1CC(=O)OC1CO (stereo unspecified) | > 100 µM (inactive) | 46 µM (inactive) | 81.1 µM (inactive) | 18.5 µM | > 100 µM (inactive) | 17 µM (inactive) | 21.9 µM (inactive) | 22.9 µM (inactive) | 28.2 µM (inactive) |  | > 100 µM (inactive) | > 100 µM (inactive) |  | > 100 µM (inactive) | 91.8 µM (inactive) | > 100 µM (inactive) | 32.8 µM (inactive) | 25.1 µM (inactive) | > 100 µM (inactive)
CS(=O)(=O)OCCn1cnc2nc(NC(=O)c3ccccc3)[nH]c(=O)c21 | > 100 µM (inactive) | > 100 µM (inactive) | > 100 µM (inactive) | > 100 µM | > 100 µM (inactive) | > 100 µM (inactive) | > 100 µM (inactive) | > 100 µM (inactive) | > 100 µM (inactive) |  | > 100 µM (inactive) | > 100 µM (inactive) | > 100 µM (inactive) | > 100 µM (inactive) | > 100 µM (inactive) | > 100 µM (inactive) | > 100 µM (inactive) |  | > 100 µM (inactive)
O=S(=O)(C1=CC(S(=O)(=O)c2ccccc2)COC1)c1ccccc1 (stereo unspecified) | > 100 µM (inactive) | > 100 µM (inactive) | > 100 µM (inactive) | > 100 µM | > 100 µM (inactive) |  | > 100 µM (inactive) | > 100 µM (inactive) | > 100 µM (inactive) | > 100 µM (inactive) |  | > 100 µM (inactive) | > 100 µM (inactive) | > 100 µM (inactive) |  | > 100 µM (inactive) | > 100 µM (inactive) | > 100 µM (inactive) | > 100 µM (inactive)
